Substitutions are numbered along the chain they refer to.
Columns and labels:
AtHMGB1 = target: T1, AtHMGB1 (Arabidopsis thaliana, UniProt O49595); assay: SPR: AtHMGB1 binding to immobilized 3AESA
T1 sequence (O49595 1-178): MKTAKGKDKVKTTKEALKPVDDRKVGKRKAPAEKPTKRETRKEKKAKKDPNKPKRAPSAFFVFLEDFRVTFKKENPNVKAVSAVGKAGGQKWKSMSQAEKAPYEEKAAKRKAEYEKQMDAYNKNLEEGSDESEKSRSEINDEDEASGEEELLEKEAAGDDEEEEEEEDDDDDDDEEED
Experimental: For SPR, 3-AESA was immobilized on a CM5 sensor chip (GE Healthcare) using the amine coupling kit (GE Healthcare). To test SA binding activity, 0.5 μM HMGB1 in HBS-EP buffer (0.01 M HEPES, pH 7.4, 0.15 M NaCl, 3 mM EDTA, 0.005% v/v Surfactant P20; GE Healthcare) without or with varying concentrations of SA was flowed through 3-AESA-immobilized or mock-coupled flow cells. The binding signals were determined by subtracting out the signal from the mock-coupled flow cell.

AtHMGB3 = target: T2, AtHMGB3 (Arabidopsis thaliana, UniProt P93047); assay: SPR: AtHMGB3 binding to immobilized 3AESA; design: providing a full length Arabidopsis thaliana HMGB1 or HMGB3 (AtHMGB1 or AtHMGB3) protein; 6x His; made in house; host or cells: Escherichia coli BL21
T2 sequence (P93047 1-141): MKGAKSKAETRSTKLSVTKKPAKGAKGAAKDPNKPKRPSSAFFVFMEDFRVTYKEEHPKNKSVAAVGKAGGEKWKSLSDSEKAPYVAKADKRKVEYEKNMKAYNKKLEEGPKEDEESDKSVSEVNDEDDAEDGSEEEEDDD

HMGB1^RE = target: T3, HMGB1^RE (Homo sapiens, UniProt P09429); assay: Chemotaxis assay (Boyden chambers): HMGB1^RE-elicited migration of mouse 3T3 fibroblasts; type: cell-based
T3 construct: (i) full length: residues 2-215; 6x His (cleaved yes); made in house; host or cells: Escherichia coli BL21
T3 sequence (P09429 2-215): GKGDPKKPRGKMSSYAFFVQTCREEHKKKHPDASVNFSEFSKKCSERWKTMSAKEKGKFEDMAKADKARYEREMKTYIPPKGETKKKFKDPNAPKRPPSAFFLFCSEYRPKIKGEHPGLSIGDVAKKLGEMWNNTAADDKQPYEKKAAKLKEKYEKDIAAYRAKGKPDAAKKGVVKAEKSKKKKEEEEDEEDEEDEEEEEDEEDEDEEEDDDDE
Experimental: (§1) Cell migration was assayed using Boyden chambers (Venereau et al., 2012). The downside of PVP-free polycarbonate filters (8 μm pores; Millipore) was coated with 50 μg/ml fibronectin (Sigma). Serum-free DMEM (negative control), DMEM containing 0.1 nM fMLP (positive control; Sigma), or DMEM containing 1 nM HMGB1^RE or HMGB1^SS were placed in the lower chamber, together with different concentrations of SA (Sigma). The mouse 3T3 fibroblast cells were cultured in DMEM media supplemented with 10% CS until 90% confluence, washed twice with PBS to eliminate any floating cells, and harvested with trypsin. 50,000 cells in 200 μL were added to the upper chamber, and cells were left to migrate for 3 h at 37° C. Non-migrating cells were removed with a cotton swab, and migrated cells were fixed with ethanol and stained with Giemsa.
(§2) HMGB1^RE acts as a chemo-attractant that mediates migration of several cell types, including monocytes, fibroblasts, mesoangioblasts, smooth muscle cells, and colon cancer cells (Venereau et al., 2012). To determine whether SA alters HMGB 1's chemo-attractant activity, a chemotaxis assay was performed with mouse 3T3 fibroblasts.

[1] = test system: fMLP-induced migration of NIH/3T3 fibroblast cells; assay: Chemotaxis assay: fMLP-induced fibroblast migration (specificity control); type: cell-based, mouse; details: 0.1 nM fMLP
Experimental: as §1, §2

[2] = target: T4, mutant (R24A/K28A) HMGB1^RE (Homo sapiens, UniProt P09429, K28A/R24A); assay: Chemotaxis assay with mutant R24A/K28A HMGB1^RE; type: cell-based; details: NIH/3T3 fibroblasts
T4 construct: (i) full length: residues 2-215; made in house
T4 sequence (P09429 2-215 R24A/K28A): T3 sequence (P09429 2-215) with R23A, K27A
Experimental: as §1
(§3) An alternative explanation is that SA, at low concentrations, affects another factor in vivo, which results indirectly in suppression of HMGB1^RE-induced chemotaxis. […] Therefore, these residues were mutated to Ala to form the double mutant Arg24Ala/Lys28Ala (R24A/K28A).

[3] = target: T5, full-length (FL) R24A/K28A HMGB1 (Homo sapiens, UniProt P09429, K28A/R24A); assay: 15N-1H HSQC NMR binding to R24A/K28A HMGB1; details: ~0.1 mM protein; 15 mM SA, 3 mM ac3AESA or 3 mM amorfrutin B1
T5 construct: (i) full length: residues 2-215; made in house
T5 sequence (P09429 2-215 R24A/K28A): T3 sequence (P09429 2-215) with R23A, K27A
Experimental: […] Samples were analyzed with and without SA or other candidate inhibitors at 25° C. Chemical shift perturbation studies were carried out using either a Bruker Avance 800 MHz Avance NMR system with 4-mm NMR tubes, or using a Bruker Avance 600 MHz NMR spectrometer equipped with a 1.7 mm micro cryoprobe. 1024 or 2048 complex points were acquired for each of 80 to 200 increments in the ^15N dimension with a recycle delay of 1 s. Each spectrum was typically acquired for 2-8 hrs. Chemical shift assignments were determined using a uniformly ^13C,^15N-enriched HMGB1-ΔC construct at 25° C. via traditional triple-resonance NMR experiments (Biamonti et al., 1994; Moseley et al., 2001) recorded on a Bruker 800 MHz NMR spectrometer equipped with a 5 mm cryoprobe. Disulfide oxidation studies were carried out using the ^15N-^1H SOFAST-HMQC NMR experiment (Schanda & Brutscher, 2005; Schanda et al., 2005; Zandarashvili et al., 2013).
as §3

COX = details: cited from earlier work
[4] = de-acetylation by esterases in human plasma (Costello et al., 1984); cited from earlier work

## NCCc1cccc(C(=O)O)c1O [3AESA, 3-aminoethyl SA]
AtHMGB1
  binding of AtHMGB1 to 3AESA immobilized to SPR sensor chip: effectively bound
AtHMGB3
  binding of AtHMGB3 to 3AESA immobilized to SPR sensor chip: effectively bound

## COc1cc(CCc2ccccc2)c(C(=O)O)c(O)c1C/C=C(\C)CCC=C(C)C [amorfrutin B1]
HMGB1^RE; NIH/3T3 fibroblasts, 1 nM HMGB1^RE, read-out: IC50, inhibition of chemo-attractant activity of HMGB1^RE
  IC50: ~0.06 µM
HMGB1^RE; relative to SA
  times more potent than SA at inhibiting the chemo-attractant activity of HMGB1^RE: 50-70 times
[1]
  effect on fibroblast migration induced by fMLP: but not of 0.1 nM fMLP, was blocked
[2]
  inhibition of R24A/K28A HMGB1^RE's chemo-attractant activity: only partially
[3]
  binding to R24A/K28A HMGB1 (CSPs in HSQC): do not bind

## CC(=O)Oc1ccccc1C(=O)O [aspirin, acetylsalicylic acid]
COX; literature (Mitchell et al., 1997; Vane, 1971)
  IC50, inhibition of COX activity in vitro: 6.3 µg/mL
COX; literature, conversion in parentheses, read-out: IC50, inhibition of COX activity in vitro
  IC50: ~35 µM
[4]
  half-life of conversion to SA: 13 to 19.5 min

From patent US20180045715A1, “STRUCTURE AND FUNCTION OF THE SALICYCLIC ACID BINDING SITES ON HUMAN HMGB1 AND METHODS OF USE THEREOF FOR THE RATIONAL DESIGN OF BOTH SALICYCLIC ACID DERIVATIVES AND OTHER AGENTS THAT ALTER ANIMAL AND PLANT HMGBS ACTIVITIES” (Boyce Thompson Institute for Plant Research, Inc., priority 2015, published 2018)
